Results reported in patent publication US12157772B2, “Prophylactic agent, onset-suppressing agent or therapeutic agent for progressive immune demyelinating diseases” (NATIONAL CENTER OF NEUROLOGY AND PSYCHIATRY, priority 2016, dated 2024).

Key:
[1] = tested on: CD19+ B cells or CD19-CD45hi non-B/class II+ antigen-presenting cells; conditions: CD19+ B cells and CD19-CD45hi non-B class II+ cells; cultured 24, 48 or 96 h with dopamine; FIG. 22
Experimental: CD19^+ B cells or CD19^−CD45^hi non-B/class II^+ antigen-presenting cells were purified from each mouse with the late-stage EAE pathology by sorting by FACS. The respective purified cells were cultured for 24, 48, or 96 h in the absence of dopamine or in the presence of a specific amount of dopamine. Next, the cultured cells were recovered and the prolactin gene (Prl) and Zbtb20 gene expression levels were analyzed by using a quantitative real-time PCR assay.

[2] = tested on: Spleen-derived CD19+ B cells; test: Zbtb20 expression in spleen-derived CD19+ B cells cultured with LPS and various cytokines; type: cell-based, mouse; conditions: cultured for 24 h in the presence of LPS and cytokine; FIG. 33
Experimental: Spleen-derived CD19^+ B cells were isolated and purified by sorting by FACS using a FACS ARIA II (manufactured by BD Cytometry Systems, Inc.). The purified B cells were cultured for 24 h in the presence of LPS and in the co-presence or absence of each cytokine designated in FIG. 33(a). After the culturing, the expression levels of Zbtb20 gene in the respective cells were measured. As antibodies used at the detection were an anti-CD19 antibody (manufactured by Biolegend, Inc.) and an anti-Zbtb20 antibody (manufactured by Becton Dickinson, Inc.).

[3] = tested on: NR4A2-deficient mouse in which monophasic EAE had been induced; test: EAE clinical score in NR4A2-deficient mice with induced monophasic EAE; type: in vivo
Description: (§1) Into each CD4-Cre/NR4A2^fl/fl mouse in which monophasic EAE had been induced in a similar manner to the above 1.(3), L-dopa or a placebo (DMSO and PBS) was intraperitoneally injected every other day from day 4 after the induction.

[4] = tested on: CD4+ T cells, CD19+ B cells, CD19-CD45hi non-B/class II+ antigen-presenting cells infiltrated into the CNS; test: Eomes and Zbtb20 expression in CNS-infiltrated cells after L-dopa dosing (FACS); type: in vivo, mouse; conditions: CNS at day 32 after the induction
Description: as §1
Next, the brain and the spinal cord were collected from each mouse at day 32 after the induction; and CD4^+ T cells, CD19^+ B cells, or CD19^−CD45^hi non-B/class II^+ antigen-presenting cells infiltrated into the CNS were sorted by FACS using a FACS ARIA II (manufactured by BD Cytometry Systems, Inc.). The respective sorted cells were stained and analyzed regarding the Eomes and Zbtb20 gene expressions. As antibodies used at the detection were an anti-CD4 antibody (manufactured by Biolegend, Inc.), an anti-Eomes antibody (manufactured by eBioscience, Inc.), an anti-CD19 antibody (manufactured by Biolegend, Inc.), and an anti-Zbtb20 antibody (manufactured by Becton Dickinson, Inc.).

prolactin gene (Prl) = test: Prolactin gene (Prl) expression in CNS-derived antigen-presenting cells after L-dopa dosing (quantitative real-time PCR); type: in vivo, mouse; conditions: CNS-derived B cells and non-B/class II+ antigen-presenting cells; repeated dosing; FIG. 25
Experimental: Next, CD19^+ B cells and CD19^−CD45^hi non-B/class II^+ antigen-presenting cells were separated from the CNS or the spleen of each L-dopa-administered mouse or each intact mouse; and the expression levels of prolactin gene (Prl) in these types of cells were analyzed by using a quantitative real-time PCR assay. As antibodies used at the detection were an anti-CD19 antibody (manufactured by Biolegend, Inc.) and an anti-CD45 antibody (manufactured by Biolegend, Inc.).

[5] = tested on: Spleen-derived CD226+CD4+ T cells; test: Culturing of spleen-derived CD226+CD4+ T cells in co-presence of prolactin, Eomes expression (flow cytometer / quantitative real-time PCR); type: cell-based, mouse
Experimental: Spleen-derived CD226^+CD4^+ T cells collected from each intact wild-type B6 mouse were cultured for 4 h or 8 h in the absence of prolactin or in the presence of each specific amount of prolactin. The Eomes expression levels in the respective cells after the culturing were measured by using a flow cytometer or a quantitative real-time PCR assay. As antibodies used at the detection were an anti-CD4 antibody (manufactured by Biolegend, Inc.) and an anti-Eomes antibody (manufactured by eBioscience, Inc.).

Spleen-derived Th cells = test: Prolactin addition and Eomes gene expression in spleen-derived Th cells (quantitative real-time PCR); type: cell-based, mouse; conditions: cultured 8 h; recombinant prolactin at low and high concentration; FIG. 15
Experimental: Spleen-derived Th cells of each intact mouse were cultured for 8 h in the absence or presence of recombinant prolactin. After the culturing, total RNA was extracted from the Th cells. A first strand cDNA synthesis kit (manufactured by Takara Bio Inc.) was used to synthesize cDNA from the total RNA obtained. A Light Cycler instrument was used under conditions using a Light Cycler-Fast Start DNA Master SYBR Green I kit (manufactured by Roche Diagnostics, Inc.) or an ABI 7300 real-time PCR instrument was used under conditions using a Power SYBR Green Master mix (manufactured by Applied Biosystems, Inc.) to perform a quantitative real-time PCR assay by using commercially available primers (QuantiTect Primer Assay, QT01074332; manufactured by Qiagen, Inc.). The Eomes gene expression levels were corrected based on the expression level of a housekeeping gene GAPDH.

[6] = tested on: Spleen-derived CD226+ Th cells; test: Prolactin addition and Eomes protein expression in spleen-derived CD226+ Th cells (FACS); type: cell-based, mouse; conditions: cultured for 48 h in the presence of prolactin; FIG. 16
Experimental: Spleen-derived CD226^+ Th cells were cultured for 8 h or 48 h in the absence or presence of prolactin. After the culturing, the CD226^+ Th cells were stained with an anti-CD226 antibody and an anti-Eomes antibody, and a FACS CANTO II (manufactured by BD Cytometry Systems, Inc.) was used to analyze CD226^+Eomes^+ T cells, CD226^+ Eomes^− T cells, and CD226^− T cells. As the antibodies used during the analysis were an anti-CD226 antibody (manufactured by Biolegend, Inc.) and an anti-Eomes antibody (manufactured by Biolegend, Inc.).

For `NCCc1ccc(O)c(O)c1` [dopamine], the “Zbtb20 gene expression levels” value [1] was “decreased markedly” and the “prolactin gene expression levels” value [1] was “decreased markedly”.

IFNα was tested, and the “increase in the expression of Zbtb20 gene” value [2] was “the most remarkable”.

`N[C@@H](Cc1ccc(O)c(O)c1)C(=O)O` [L-dopa, L-3,4-dihydroxyphenylalanine] was tested, and the “cumulative EAE scores” value ([3]; intraperitoneally every other day from day 4, right graph of FIG. 23) was “improvement”, the EAE scores ([3]; intraperitoneally every other day from day 4 after the induction, FIG. 23) was “improve markedly” and the “percentage of CD4+Eomes+ T cells in the CD4+ T cells” value ([4]; FIG. 24(a)) was “decrease markedly”. The “percentage of Zbtb20+ cells in the CD19+ B cells” value ([4]; FIG. 24(b)) was “decrease”, the “percentage of Zbtb20+ cells in the CD19-CD45hi non-B/class II+ antigen-presenting cells” value ([4]; FIG. 24(c)) was “decrease” and the “expression levels of prolactin gene” value (prolactin gene (Prl)) was “decrease”.

B1: prolactin: recombinant prolactin added to Th cell cultures (protein, UniProt P01236 29-227, looked up)
Prolactin: LPICPGGAARCQVTLRDLFDRAVVLSHYIHNLSSEMFSEFDKRYTHGRGFITKAINSCHTSSLATPEDKEQAQQMNQKDFLSLIVSILRSWNEPLYHLVTEVRGMQEAPEAILSKAVEIEEQTKRLLEGMELIVSQVHPETKENEIYPVWSGLPSLQMADEESRLSAYYNLLHCLRRDSHKIDNYLKLLKCRIIHNNNC
For B1, the “Eomes gene expression level” value ([5]; prolactin at 30 ng/mL, FIG. 8(b)) was “increased”, the “percentage of CD4+Eomes+ T cells” value ([5]; prolactin at 30 or 100 ng/mL, cultured 4 h or 8 h, FIG. 7, 8(a)) was “increased markedly” and the “relative expression level of Eomes relative to that of a housekeeping gene” value (Spleen-derived Th cells) was “increased in a prolactin concentration-dependent fashion”. For the same molecule, the Eomes expression levels [6] was “increased more markedly”.
